In paper PMC6273168, “Synthesis and Biological Evaluation of Novel 4-Morpholino-7,8-dihydro-5H-thiopyrano[4,3-d]pyrimidine Derivatives Bearing Phenylpyridine/ Phenylpyrimidine-Carboxamides” (Molecules, 2016):

| SMILES | melting point [°C] |
| --- | --- |
| O=C(Nc1ccc(-c2nc3c(c(N4CCOCC4)n2)CSCC3)cc1)c1cc(-c2ccc(F)cc2F)ccn1 [Compound 11c, N-(4-(4-Morpholino-7,8-dihydro-5H-thiopyrano[4,3-d]pyrimidin-2-yl)phenyl)-4-(2,4-difluorophenyl) picolinamide] | 235 to 236.7 |
| O=C(Nc1ccc(-c2nc3c(c(N4CCOCC4)n2)CSCC3)cc1)c1cc(-c2ccc(F)cc2)ccn1 [Compound 11f, N-(4-(4-Morpholino-7,8-dihydro-5H-thiopyrano[4,3-d]pyrimidin-2-yl)phenyl)-4-(4-fluorophenyl)pyridine amide] | 248.1 to 249.6 |
| Cc1ccc(-c2ccnc(C(=O)Nc3ccc(-c4nc5c(c(N6CCOCC6)n4)CSCC5)cc3)c2)cc1 [Compound 11g, N-(4-(4-Morpholino-7,8-dihydro-5H-thiopyrano[4,3-d]pyrimidin-2-yl)phenyl)-4-(4-methylphenyl) picolinamide] | 275 to 276.8 |
| CCc1ccc(-c2ccnc(C(=O)Nc3ccc(-c4nc5c(c(N6CCOCC6)n4)CSCC5)cc3)c2)cc1 [Compound 11h, N-(4-(4-Morpholino-7,8-dihydro-5H-thiopyrano[4,3-d]pyrimidin-2-yl)phenyl)-4-(4-ethylphenyl) picolinamide] | 229.8 to 232.1 |
| O=C(Nc1ccc(-c2nc3c(c(N4CCOCC4)n2)CS(=O)(=O)CC3)cc1)c1cc(-c2cccc(F)c2)ccn1 [Compound 12b, N-(4-(4-Morpholino-7,8-dihydro-6,6-dioxide-5H-thiopyrano[4,3-d]pyrimidin-2-yl)phenyl)-4-(3-fluoro-phenyl) pyridinecarboxamide] | 281.5 to 283.8 |
| O=C(Nc1ccc(-c2nc3c(c(N4CCOCC4)n2)CS(=O)(=O)CC3)cc1)c1cc(-c2ccc(F)cc2F)ccn1 [Compound 12c, N-(4-(4-Morpholino-7,8-dihydro-6,6-dioxide-5H-thiopyrano[4,3-d]pyrimidin-2-yl)phenyl)-4-(2,4-difluorophenyl) picolinamide] | 269 to 272.6 |
| O=C(Nc1ccc(-c2nc3c(c(N4CCOCC4)n2)CS(=O)(=O)CC3)cc1)c1cc(-c2ccc(C(F)(F)F)cc2)ccn1 [Compound 12d, N-(4-(4-Morpholino-7,8-dihydro-6,6-dioxide-5H-thiopyrano[4,3-d]pyrimidin-2-yl)phenyl)-4-(4-trifluoro-methylphenyl) pyridinecarboxamide] | > 300 |
| O=C(Nc1ccc(-c2nc3c(c(N4CCOCC4)n2)CS(=O)(=O)CC3)cc1)c1cc(-c2ccc(Cl)cc2)ccn1 [Compound 12e, N-(4-(4-Morpholino-7,8-dihydro-6,6-dioxide-5H-thiopyrano[4,3-d]pyrimidin-2-yl)phenyl)-4-(4-chloro-phenyl) pyridinecarboxamide] | 266.8 to 268.8 |
| O=C(Nc1ccc(-c2nc3c(c(N4CCOCC4)n2)CS(=O)(=O)CC3)cc1)c1cc(-c2ccc(F)cc2)ccn1 [Compound 12f, N-(4-(4-Morpholino-7,8-dihydro-6,6-dioxide-5H-thiopyrano[4,3-d]pyrimidin-2-yl)phenyl)-4-(4-fluoro-phenyl) pyridincarboxamide] | > 300 |
| COc1ccc(-c2ccnc(C(=O)Nc3ccc(-c4nc5c(c(N6CCOCC6)n4)CS(=O)(=O)CC5)cc3)c2)cc1 [Compound 12i, N-(4-(4-Morpholino-7,8-dihydro-6,6-dioxide-5H-thiopyrano[4,3-d]pyrimidin-2-yl)phenyl)-4-(4-methoxy-phenyl) pyridinecarboxamide] | 289 to 292.1 |
